Like-named read-outs stand apart in the source and are kept apart here.
Experiments:
Assay type in all cases: biochemical
[1] = molecular target: T1, Thrombin (bovine) (Bos taurus, UniProt P00735); assay: Enzyme kinetic determination of Ki with chromogenic substrate, thrombin
T1 construct: Thrombin (bovine)
Description: (§1) The inhibitory effect of the inhibitors for factor Xa, thrombin and plasmin were estimated using specific synthetic chromogenic substrates. […] The inhibitor was dissolved in Tris buffer, the substrates (all Pentapharm Ltd., Basel, CH) in water. […] Three different substrate concentrations and five different inhibitor concentrations were measured in each case.
(§2) The following enzymes and substrates were used for the measurements:
Enzyme content: 2.5 IE/ml (in 0.9% NaCl with 1% HSA)
Substrate: CH3SO2-D-HHT-Gly-Arg-pNA (Pefachrome tPA),
concentration: 2, 1 and 0.5 mM; reaction time: 3 min

[2] = molecular target: T2, Human plasmin (Homo sapiens, UniProt P00747); assay: Enzyme kinetic determination of Ki with chromogenic substrate, plasmin; settings: Tris buffer pH 8.0, 25° C., Chromozym PL
T2 construct: Human plasmin (CHROMOGENIX, Milano, Italy); purchased CHROMOGENIX, Milano, Italy
Description: as §1, §2
Human plasmin (CHROMOGENIX, Milano, Italy)
Substrate: Tos-Gly-Pro-Lys-pNA (Chromozym PL),
concentration: 2, 1 and 0.67 mM; reaction time: 3 min

[3] = molecular target: T3, Human factor Xa (Homo sapiens, UniProt P00742); assay: Enzyme kinetic determination of Ki with chromogenic substrate, factor Xa; settings: Tris buffer pH 8.0, 25° C., Pefachrome Xa, read-out: Ki (nM) FXa
T3 construct: Human factor Xa (Enzyme Research Lab., purchased from Haemochrom Diagnostica GmbH, Essen); purchased Enzyme Research Lab; (via Haemochrom Diagnostica GmbH, Essen)
Description: as §1, §2
Human factor Xa (Enzyme Research Lab., purchased from Haemochrom Diagnostica GmbH, Essen)
Enzyme content: 0.67 μg/ml
Substrate: CH3OCO-D-Cha-Gly-Arg-pNA (Pefachrome Xa),
concentration: 4, 2 and 1 mM; reaction time: 4 min

[4] = bovine thrombin, Tris buffer pH 8.0, 25° C., Pefachrome tPA, read-out: Ki (nM) Thrombin

T3 sequence (P00742 235-488 limits assumed): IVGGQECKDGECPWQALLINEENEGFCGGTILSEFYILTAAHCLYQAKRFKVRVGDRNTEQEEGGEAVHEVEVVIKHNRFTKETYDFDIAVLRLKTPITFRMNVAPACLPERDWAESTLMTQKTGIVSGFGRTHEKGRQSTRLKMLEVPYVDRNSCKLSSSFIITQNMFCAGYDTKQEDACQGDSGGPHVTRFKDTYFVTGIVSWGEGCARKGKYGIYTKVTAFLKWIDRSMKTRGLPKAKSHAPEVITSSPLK
T3 sequence (P00742 41-179 limits assumed): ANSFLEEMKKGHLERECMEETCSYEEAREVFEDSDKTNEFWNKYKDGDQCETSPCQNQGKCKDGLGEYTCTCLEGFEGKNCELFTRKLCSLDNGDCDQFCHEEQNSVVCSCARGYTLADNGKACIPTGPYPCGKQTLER
T2 sequence (P00747 581-810 limits assumed): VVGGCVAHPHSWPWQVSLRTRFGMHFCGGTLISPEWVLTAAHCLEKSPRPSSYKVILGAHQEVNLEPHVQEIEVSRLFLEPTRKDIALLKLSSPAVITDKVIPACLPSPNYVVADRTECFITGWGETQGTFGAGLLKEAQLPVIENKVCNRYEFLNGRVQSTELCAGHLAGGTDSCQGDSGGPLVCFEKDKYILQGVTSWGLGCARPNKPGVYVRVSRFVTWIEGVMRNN
T2 sequence (P00747 97-580 limits assumed): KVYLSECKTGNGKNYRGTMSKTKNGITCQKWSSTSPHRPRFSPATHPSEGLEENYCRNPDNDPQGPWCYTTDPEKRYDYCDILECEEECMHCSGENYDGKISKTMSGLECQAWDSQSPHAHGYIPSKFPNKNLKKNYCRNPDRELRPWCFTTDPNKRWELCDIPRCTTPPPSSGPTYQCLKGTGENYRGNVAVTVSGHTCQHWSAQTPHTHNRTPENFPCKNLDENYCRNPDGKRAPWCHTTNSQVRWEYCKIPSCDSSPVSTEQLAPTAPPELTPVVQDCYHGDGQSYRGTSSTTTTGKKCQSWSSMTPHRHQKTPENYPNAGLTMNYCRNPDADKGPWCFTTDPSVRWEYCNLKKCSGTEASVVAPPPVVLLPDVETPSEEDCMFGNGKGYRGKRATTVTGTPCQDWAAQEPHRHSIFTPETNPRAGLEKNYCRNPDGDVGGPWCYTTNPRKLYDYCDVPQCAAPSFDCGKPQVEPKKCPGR

| Structure (SMILES) | Ki [1] | Ki [2] | Ki [1, 4] | Ki [3] |
| --- | --- | --- | --- | --- |
| NCc1ccc(Cl)cc1CNC(=O)CNC(=O)[C@@H](CCc1cccc[n+]1[O-])NS(=O)(=O)Cc1ccccc1 [Inhibitor 1] | 170 nM | 600000 nM | – | – |
| NCc1ccc(Cl)cc1CNC(=O)[C@H](CO)NC(=O)C(CCc1ccccn1)NS(=O)(=O)Cc1ccccc1 (stereo partly drawn) [Inhibitor 3] | 260 nM | 350000 nM | – | – |
| NCc1ccc(Cl)cc1CNC(=O)[C@H](CCC(=O)O)NC(=O)C(CCc1cccc[n+]1[O-])NS(=O)(=O)Cc1ccccc1 (stereo partly drawn) [Inhibitor 6] | 20500 nM | 400000 nM | – | – |
| NCc1ccc(Cl)cc1CNC(=O)CNC(=O)[C@H](O)CCc1ccccc1 [Inhibitor 8] | – | 540000 nM | 1600 nM | 2200 nM |
| NCc1ccc(Cl)cc1CNC(=O)CNC(=O)C(CCc1cccc[n+]1[O-])NCC(=O)O (stereo not drawn) [Inhibitor 9] | 125000 nM | > 1e+06 nM | – | – |
| NCc1ccc(Cl)cc1CNC(=O)CNC(=O)C(CCc1cccc[n+]1[O-])NS(=O)(=O)Cc1ccc(CC(=O)O)cc1 (stereo not drawn) [Inhibitor 14] | 930 nM | > 1e+06 nM | – | – |
| NCc1ccc(Cl)cc1CNC(=O)CNC(=O)C(CCc1ccccn1)NS(=O)(=O)Cc1ccc(CC(=O)O)cc1 (stereo not drawn) [Inhibitor 15] | – | > 1e+06 nM | 140 nM | 0.68 nM |
| NCc1ccc(Cl)cc1CNC(=O)[C@H](CO)NC(=O)[C@@H](CCc1cccc[n+]1[O-])NS(=O)(=O)Cc1ccc(CC(=O)O)cc1 [Inhibitor 17] | – | > 1e+06 nM | 540 nM | 0.18 nM |
| COC(=O)Cc1ccc(CS(=O)(=O)NC(CCc2ccccn2)C(=O)N[C@@H](CO)C(=O)NCc2cc(Cl)ccc2CN)cc1 (stereo partly drawn) [Inhibitor 18] | – | > 1e+06 nM | 430 nM | 0.67 nM |
| NCc1ccc(Cl)cc1CNC(=O)CNC(=O)C(CCc1cccc[n+]1[O-])NS(=O)(=O)Cc1ccc[n+]([O-])c1 (stereo not drawn) [Inhibitor 25] | – | > 1e+06 nM | 2500 nM | 1.4 nM |
| CC(C)OC(=O)CS(=O)(=O)NC(CCc1cccc[n+]1[O-])C(=O)NCC(=O)NCc1cc(Cl)ccc1CN (stereo not drawn) [Inhibitor 28] | 1600 nM | 305000 nM | – | 7.6 nM |
| NCc1ccc(Cl)cc1CNC(=O)CNC(=O)C(CCc1cccc[n+]1[O-])NS(=O)(=O)CC(=O)O (stereo not drawn) [Inhibitor 29] | 8300 nM | > 1e+06 nM | – | – |
| NCc1ccc(Cl)cc1CNC(=O)CNC(=O)C(CCc1cccc[n+]1[O-])NC(=O)CC(=O)O (stereo not drawn) [Inhibitor 32] | 140 nM | – | – | – |
| CCOC(=O)CN[C@H](CCc1ccccn1)C(=O)N1CCC[C@H]1C(=O)NCc1cc(Cl)ccc1CN [Inhibitor 34] | 3.8 nM | – | – | – |
| NCc1ccc(Cl)cc1CNC(=O)[C@@H]1CCCN1C(=O)[C@@H](CCc1cccc[n+]1[O-])NCC(=O)OC1CCCCC1 [Inhibitor 38] | – | – | – | 1.01 nM |

Now from value to molecule:

| Ki [1] | Ki [2] | Ki [1, 4] | Ki [3] | Structure (SMILES) |
| --- | --- | --- | --- | --- |
| 2630 nM | 280000 nM | – | – | CCCS(=O)(=O)NC(CCc1cccc[n+]1[O-])C(=O)NCC(=O)NCc1cc(Cl)ccc1CN (stereo not drawn) [Inhibitor 4] |
| – | 130000 nM | 350 nM | 0.43 nM | COC(=O)CC[C@H](NC(=O)C(CCc1cccc[n+]1[O-])NS(=O)(=O)Cc1ccccc1)C(=O)NCc1cc(Cl)ccc1CN (stereo partly drawn) [Inhibitor 5] |
| 0.56 nM | 8470 nM | – | – | NCc1ccc(Cl)cc1CNC(=O)[C@@H]1CCCN1C(=O)[C@@H](CCc1cccc[n+]1[O-])NS(=O)(=O)Cc1ccccc1 [Inhibitor 7] |
| 170 nM | 85000 nM | – | – | C[C@H](NC(=O)[C@@H](CCc1cccc[n+]1[O-])NS(=O)(=O)Cc1ccccc1)C(=O)NCc1cc(Cl)ccc1CN [Inhibitor 10] |
| – | 78000 nM | 180 nM | 0.24 nM | COC(=O)CC[C@H](NC(=O)[C@@H](CCc1cccc[n+]1[O-])NS(=O)(=O)Cc1ccccc1)C(=O)NCc1cc(Cl)ccc1CN [Inhibitor 11] |
| – | 2300 nM | 750 nM | 0.54 nM | NCc1ccc(Cl)cc1CNC(=O)[C@H](CN)NC(=O)[C@@H](CCc1cccc[n+]1[O-])NS(=O)(=O)Cc1ccccc1 [Inhibitor 12] |
| 1010 nM | 200000 nM | – | – | COC(=O)Cc1ccc(CS(=O)(=O)NC(CCc2cccc[n+]2[O-])C(=O)NCC(=O)NCc2cc(Cl)ccc2CN)cc1 (stereo not drawn) [Inhibitor 13] |
| – | 100000 nM | 210 nM | 0.78 nM | NCc1ccc(Cl)cc1CNC(=O)[C@H](CO)NC(=O)[C@@H](CCc1ccccn1)NS(=O)(=O)Cc1ccc(CC(=O)O)cc1 [Inhibitor 19] |
| – | 140000 nM | 360 nM | 0.3 nM | COC(=O)c1ccc(CS(=O)(=O)NC(CCc2cccc[n+]2[O-])C(=O)NCC(=O)NCc2cc(Cl)ccc2CN)cc1 (stereo not drawn) [Inhibitor 20] |
| – | 130000 nM | 1300 nM | 4.1 nM | NCc1ccc(Cl)cc1CNC(=O)CNC(=O)C(CCc1cccc[n+]1[O-])NS(=O)(=O)Cc1ccc(C(=O)O)cc1 (stereo not drawn) [Inhibitor 21] |
| – | 98000 nM | 100 nM | 1.05 nM | COC(=O)c1ccc(CS(=O)(=O)NC(CCc2ccccn2)C(=O)NCC(=O)NCc2cc(Cl)ccc2CN)cc1 (stereo not drawn) [Inhibitor 22] |
| – | 140000 nM | 330 nM | 11 nM | NCc1ccc(Cl)cc1CNC(=O)CNC(=O)C(CCc1ccccn1)NS(=O)(=O)Cc1ccc(C(=O)O)cc1 (stereo not drawn) [Inhibitor 23] |
| – | 160000 nM | 930 nM | 0.48 nM | COC(=O)c1ccc(CS(=O)(=O)NC(CCc2cccc[n+]2[O-])C(=O)N[C@@H](CO)C(=O)NCc2cc(Cl)ccc2CN)cc1 (stereo partly drawn) [Inhibitor 24] |
| – | 210000 nM | 140 nM | 0.34 nM | NCc1ccc(Cl)cc1CNC(=O)CNC(=O)C(CCc1ccccn1)NS(=O)(=O)Cc1cccnc1 (stereo not drawn) [Inhibitor 26] |
| 22 nM | 98000 nM | – | – | NCc1ccc(Cl)cc1CNC(=O)[C@@H]1CCCN1C(=O)[C@@H](CCc1cccc[n+]1[O-])NS(=O)(=O)CC(=O)O [Inhibitor 27] |
| – | 290000 nM | 66 nM | 2.1 nM | CC(C)OC(=O)CS(=O)(=O)NC(CCc1ccccn1)C(=O)NCC(=O)NCc1cc(Cl)ccc1CN (stereo not drawn) [Inhibitor 30] |
| – | 80000 nM | 43 nM | 0.88 nM | NCc1ccc(Cl)cc1CNC(=O)[C@@H]1CCCN1C(=O)C(CCc1cccc[n+]1[O-])NC(=O)C(=O)O (stereo partly drawn) [Inhibitor 31] |
| – | 240000 nM | – | 0.4 nM | CCOC(=O)CN[C@H](CCc1cccc[n+]1[O-])C(=O)N1CCC[C@H]1C(=O)NCc1cc(Cl)ccc1CN [Inhibitor 33] |
| 17.2 nM | 100000 nM | – | 0.4 nM | NCc1ccc(Cl)cc1CNC(=O)[C@@H]1CCCN1C(=O)[C@@H](CCc1cccc[n+]1[O-])NCC(=O)O [Inhibitor 35] |

— patent US8124587B2, “2-(aminomethyl)-5-chlorobenzylamide derivatives and their use as inhibitors of the clotting factor Xa” (The Medicines Company (Leipzig) GmbH, priority 2005, dated 2012)
